Measured values: patent US11903945B2, “Methods of treating antipsychotic-induced weight gain with miricorilant” (Corcept Therapeutics Incorporated, priority 2019, dated 2024)
“And” between values parts separate entries of the source, which are not always exact repeats. Equal entries are not always repeated. “Also recorded” adds a separate entry of the source. Where two headings read alike, the source gives them in different places.

What was measured:
[1] = Hunt et al., Bioorg Med Chem Lett. 2012; cited from earlier work
[2] = format: in vivo; details: female rats; for Study day from which body weight reduction became statistically significant: treatment started Day 35
Protocol: On day 35, the rodents were randomized to 4 different interventions and remained on study until day 57. The four intervention groups were: OLZ+vehicle daily by oral gavage; OLZ+2 mg/kg/day miricorilant once daily; OLZ+1 mg/kg miricorilant twice daily; and OLZ+10 mg/kg/day miricorilant once daily. A fifth group, a vehicle-only group (n=12), was included as a control for the entirety of the 57 days.
Starting at week 6, either miricorilant (MIRI, 3 dosing regimens) or vehicle 2 was administered orally. […] The vehicle-only group was included as a control for the 8-week duration of the study. Efficacy was assessed based on body weight, food consumption, mortality, and clinical observations.
The articles were stored refrigerated between dosing.
Body weights were measured and recorded three times weekly during the acclimation period, every other day beginning on Day −1, and prior to termination on Day 57. Food consumption was measured and recorded daily beginning on Day −14. Body weights and food consumption were measured within 2 hours of the initial time on Day −1. Any changes in bodyweight greater than 15 grams (g) and changes in food consumption greater than 5 g were verified. Food jars were weighed twice for precision during food jar changes.

progesterone receptor = biological target: T1, progesterone receptor (Homo sapiens, UniProt P06401); details: cited from earlier work
T1 sequence (P06401 1-933): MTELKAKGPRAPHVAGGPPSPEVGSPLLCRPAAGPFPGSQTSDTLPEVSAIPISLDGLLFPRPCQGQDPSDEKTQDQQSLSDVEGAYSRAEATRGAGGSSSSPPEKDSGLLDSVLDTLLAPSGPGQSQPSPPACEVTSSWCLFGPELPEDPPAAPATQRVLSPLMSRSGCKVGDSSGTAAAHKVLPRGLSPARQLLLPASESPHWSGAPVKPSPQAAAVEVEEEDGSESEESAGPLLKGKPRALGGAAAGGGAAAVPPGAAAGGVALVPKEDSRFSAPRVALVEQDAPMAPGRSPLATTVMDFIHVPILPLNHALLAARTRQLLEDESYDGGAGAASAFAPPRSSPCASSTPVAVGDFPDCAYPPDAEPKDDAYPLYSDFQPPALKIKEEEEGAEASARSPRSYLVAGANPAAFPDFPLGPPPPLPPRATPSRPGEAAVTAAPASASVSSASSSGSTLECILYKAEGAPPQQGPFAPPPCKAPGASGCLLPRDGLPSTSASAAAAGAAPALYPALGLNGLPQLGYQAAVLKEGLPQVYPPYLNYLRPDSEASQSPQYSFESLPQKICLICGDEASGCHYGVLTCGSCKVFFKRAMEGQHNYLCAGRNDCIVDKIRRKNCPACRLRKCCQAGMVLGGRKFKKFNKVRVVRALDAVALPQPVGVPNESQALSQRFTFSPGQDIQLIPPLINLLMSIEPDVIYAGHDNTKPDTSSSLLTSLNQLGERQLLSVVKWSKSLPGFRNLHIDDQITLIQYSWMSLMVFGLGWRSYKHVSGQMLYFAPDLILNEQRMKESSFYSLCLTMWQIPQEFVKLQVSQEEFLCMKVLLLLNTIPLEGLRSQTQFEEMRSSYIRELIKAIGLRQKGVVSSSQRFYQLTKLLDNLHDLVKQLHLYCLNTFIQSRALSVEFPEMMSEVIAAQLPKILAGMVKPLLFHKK

[3] = Protocol: The dose level tested in our Phase 1b trial was 600 mg/day.
A 2-week, single-center, double-blind, randomized, placebo-controlled study was conducted in healthy male subjects age 18-55 years with BMI between 18-25 kg/m^2 and a stable body weight (defined as the Day 1 pre-dose body weight to be within ±2.0% of screening body weight). […] Food was freely available to all subjects during the study. The difference in mean change in absolute body weight after administration of OLZ+PBO compared to OLZ+MIRI was evaluated using a repeated measures model with imputation applied to missing values.
(HOMA2-IR values were calculated from fasted glucose and insulin levels using the HOMA (HOMA2 Model) Calculator® application programming interface for SAS (Oxford University 2013, available at the website www.dtu.ox.ac.uk/homacalculator)).

[4] = Group 3: OLZ + miricorilant 1 mg/kg/dose BID
[5] = Group 4: OLZ + miricorilant 2 mg/kg/dose QD
[6] = Group 5: OLZ + miricorilant 10 mg/kg/dose QD
[7] = first week of miricorilant treatment with OLZ, P<0.01
[8] = (1 − (A/B)) × 100, MIRI 600 mg/day + OLZ vs placebo + OLZ, healthy male subjects
[9] = healthy male subjects, day not given, listed as miricorilant = olanzapine+miricorilant, listed as olanzapine = olanzapine+placebo
[10] = healthy male subjects, listed as miricorilant = MIRI 600 mg/day + OLZ 10 mg/day, listed as olanzapine = placebo + OLZ 10 mg/day
[11] = healthy male subjects, listed as miricorilant = MIRI 600 mg/day + OLZ, listed as olanzapine = placebo + OLZ 10 mg/day, unit given in Table 1, not in Table 2
[12] = healthy male subjects, listed as miricorilant = olanzapine+miricorilant, listed as olanzapine = olanzapine+placebo
[13] = healthy male subjects, listed as miricorilant = olanzapine+miricorilant, listed as olanzapine = olanzapine+placebo, from Table 2 with Table 1 baselines

SMILES: O=c1[nH]c(=O)c(Cc2cccc(C(F)(F)F)c2)c([C@H]2CC[C@H](c3ccccc3)CC2)[nH]1 [miricorilant, (E)-6-(4-Phenylcyclohexyl)-5-(3-trifluoromethylbenzyl)-1H-pyrimidine-2,4-dione]
- Effect on olanzapine-induced weight gain in rats [1]: prevent olanzapine-induced weight gain
- Study day from which body weight reduction became statistically significant ([2]; Group 3: 1 mg/kg/dose BID): 36
- Body weight reduction at Day 57 vs olanzapine control Group 2 ([…] g) [2, 4]: 13%
- Least Squares (LS) mean body weight at Day 57 [2, 4]: 268 g
- Group mean body weight at Day 57 ([2]; Group 3: OLZ + miricorilant 1 mg/kg/dose BID oral, Days 35-57): 269 g
- Study day from which body weight reduction became statistically significant ([2]; Group 4: 2 mg/kg/dose QD): 38
- Body weight reduction at Day 57 vs olanzapine control Group 2 ([…] g) [2, 5]: 12%
- Least Squares (LS) mean body weight at Day 57 [2, 5]: 272 g
- Loss compared with basal body weight (vehicle-only control) at the end of the study [2, 5]: no significant loss; also recorded: no reduction
- Group mean body weight at Day 57 ([2]; Group 4: OLZ + miricorilant 2 mg/kg/dose QD oral, Days 35-57): 272 g
- Study day from which body weight reduction became statistically significant ([2]; Group 5: 10 mg/kg/dose QD): 36
- Body weight reduction at Day 57 vs olanzapine control Group 2 ([…] g) [2, 6]: 17%
- Least Squares (LS) mean body weight at Day 57 [2, 6]: 259 g
- Group mean body weight at Day 57 ([2]; Group 5: OLZ + miricorilant 10 mg/kg/dose QD oral, Days 35-57): 258 g
- Food consumption by the end of the study ([2]; all three miricorilant dose regimens with OLZ): returned to vehicle-only levels
- Decrease in weight compared to the OLZ+vehicle group ([2]; days 35-57, all three miricorilant regimens with OLZ, p<0.05): 12-17%
- Food consumption lower compared to olanzapine-only animals [2, 7]: 16%-23%
- Food consumption lower compared to vehicle-only controls [2, 7]: 13%-20%
- Mortality ([2]; miricorilant 1 mg/kg BID, 2 or 10 mg/kg QD with OLZ, Days 35-57): no mortalities
- Effect on olanzapine-induced body weight gains and food consumption increases ([2]; oral, all three dose regimens, within first week of treatment (Week 6), maintained): completely abrogated
- Affinity for the progesterone receptor (progesterone receptor): without affinity
- % reduction in OLZ-induced increase: HOMA2-IR, Day 8 [3, 8]: 38%
- % reduction in OLZ-induced increase: HOMA2-IR, Day 15 [3, 8]: 39%
- % reduction in OLZ-induced increase: body weight, Day 8 [3, 8]: 25%
- % reduction in OLZ-induced increase: body weight, Day 15 [3, 8]: 22%
- % reduction in OLZ-induced increase: insulin, Day 8 [3, 8]: 38%
- % reduction in OLZ-induced increase: insulin, Day 15 [3, 8]: 39%
- % reduction in OLZ-induced increase: triglycerides, Day 8 [3, 8]: 49%
- % reduction in OLZ-induced increase: triglycerides, Day 15 [3, 8]: 45%
- Difference in weight gain between treatment groups on day 15 ([3]; OLZ+MIRI vs OLZ+PBO, MMRM, P=0.017, 95% CI [−1.94, −0.19], healthy male subjects): -1.07 kg
- Difference in weight gain between treatment groups on day 8 ([3]; OLZ+MIRI vs OLZ+PBO, MMRM, P=0.044, 95% CI [−1.77, −0.02], healthy male subjects): -0.9 kg
- Difference in triglyceride increase on day 8 ([3]; OLZ+MIRI vs OLZ+PBO, P<0.001, healthy male subjects): -0.53 mmol/L
- Difference in HOMA2-IR on day 15 ([3]; OLZ+MIRI vs OLZ+PBO, P=0.007, healthy male subjects): −0.47
- Difference in HOMA2-IR on day 8 ([3]; OLZ+MIRI vs OLZ+PBO, P=0.012, healthy male subjects): −0.44
- Difference in plasma insulin increase on day 8 ([3]; OLZ+MIRI vs OLZ+PBO, P=0.013, healthy male subjects): −3.49 mIU/L
- Difference in triglyceride increase on day 15 ([3]; OLZ+MIRI vs OLZ+PBO, P=0.057, healthy male subjects): -0.28 mmol/L
- HOMA2-IR level relative to baseline [3, 9]: less than 2 fold
- Insulin resistance (HOMA2-IR) increase from baseline, percent [3, 9]: about 90%
- Body weight increase from baseline on Day 8 [3, 10]: 2.6 kg and 2.59 kg
- Body weight increase from baseline on Day 15 [3, 10]: 3.9 kg and 3.91 kg
- HOMA2-IR increase from baseline on Day 8 [3, 10]: 0.71
- HOMA2-IR increase from baseline on Day 15 [3, 10]: 0.74
- Insulin increase from baseline on Day 8 [3, 10]: 5.65 mIU/L
- Insulin increase from baseline on Day 15 [3, 10]: 5.91 mIU/L
- Triglycerides increase from baseline on Day 8 [3, 11]: 0.56 mmol/L
- Triglycerides increase from baseline on Day 15 [3, 11]: 0.34 mmol/L
- Insulin increase from baseline, percent, day 8 [3, 12]: about 92%
- Insulin increase from baseline, percent, day 15 [3, 12]: 97%
- Triglycerides increase from baseline, percent, day 8 [3, 12]: about 60%
- Triglycerides increase from baseline, percent, day 15 [3, 12]: 37%
- Body weight increase from baseline, percent of baseline, day 8 [3, 13]: about 3.6%
- Body weight increase from baseline, percent of baseline, day 15 [3, 13]: 5.4%
- ALT increase from baseline, percent, day 7 ([3]; human, in vivo): 152%
- ALT increase from baseline, percent, day 12 ([3]; human, in vivo): 528%
- AST increase from baseline, percent, day 7 ([3]; human, in vivo): 71%
- AST increase from baseline, percent, day 12 ([3]; human, in vivo): 192%
- Difference in ALT levels between treatment arms on day 12 ([3]; human, in vivo): −49.99 IU/L
- Difference in AST levels between groups on day 12 ([3]; human, in vivo): −32.24 IU/L
- Tolerability of the dose ([3]; human, in vivo): very well tolerated
- Difference in plasma insulin increase on day 15 ([3]; printed as between PBO and OLZ, P=0.007, healthy male subjects): 3.74 mIU/L
